We go through 16 compounds from patent publication US9193733B2, “Piperidinylcyclobutyl substituted pyrrolopyridine and pyrrolopyrimidine derivatives as JAK inhibitors” (Incyte Corporation, priority 2012, dated 2015).

The term IC50 denotes the concentration needed to halve the response being measured. Lower therefore signals greater potency.

Common to all, as to assay type: biochemical
Assay [1] addresses T1, human JAK2 (a.a. 828-1132) catalytic domain (Homo sapiens, UniProt O60674).
T1 construct: human JAK1 (a.a. 837-1142) and JAK2 (a.a. 828-1132); His tag (N); made in house; host or cells: insect cells (baculovirus)
In words: In vitro JAK kinase assay (HTRF, phosphorylation of a biotinylated peptide), JAK2. As to conditions: 1 mM ATP. The method, then: (§1) Compounds herein were tested for inhibitory activity of JAK targets according to the following in vitro assay described in Park et al., Analytical Biochemistry 1999, 269, 94-104. The catalytic domains of human JAK1 (a.a. 837-1142) and JAK2 (a.a. 828-1132) with an N-terminal His tag were expressed using baculovirus in insect cells and purified. The catalytic activity of JAK1 and JAK2 was assayed by measuring the phosphorylation of a biotinylated peptide. The phosphorylated peptide was detected by homogenous time resolved fluorescence (HTRF). IC50s of compounds were measured for each kinase in the 40 microL reactions that contain the enzyme, ATP and 500 nM peptide in 50 mM Tris (pH 7.8) buffer with 100 mM NaCl, 5 mM DTT, and 0.1 mg/mL (0.01%) BSA. For the 1 mM IC50 measurements, ATP concentration in the reactions was 1 mM. Reactions were carried out at room temperature for 1 hour and then stopped with 20 μL 45 mM EDTA, 300 nM SA-APC, 6 nM Eu-Py20 in assay buffer (Perkin Elmer, Boston, Mass.). Binding to the Europium labeled antibody took place for 40 minutes and HTRF signal was measured on a Fusion plate reader (Perkin Elmer, Boston, Mass.). See Table A for data related to compounds of the Examples (at 1 mM). Data is indicated as ranges: <20 nM (+), 20 to <150 nM (++), 150 to 500 nM (+++).
Background: TR-FRET usually uses a lanthanide donor and a delayed reading to cut background.

Assay [2] has as its target T2, human JAK1 (a.a. 837-1142) catalytic domain (Homo sapiens, UniProt P23458).
T2 construct: human JAK1 (a.a. 837-1142) and JAK2 (a.a. 828-1132); His tag (N); made in house; host or cells: insect cells (baculovirus)
In words: In vitro JAK kinase assay (HTRF, phosphorylation of a biotinylated peptide), JAK1. The following applies: 1 mM ATP. How it is done:
as §1

Assay [3] deals with human JAK1 (a.a. 837-1142) catalytic domain. The assay is described as above. The following applies: ratio of JAK2 IC50 to JAK1 IC50, 1 mM ATP. The method, then:
as §1

The structures appear in SMILES notation. A value given as a limit tells only on which side of the number the result lay.

T2 sequence (P23458 849-1154): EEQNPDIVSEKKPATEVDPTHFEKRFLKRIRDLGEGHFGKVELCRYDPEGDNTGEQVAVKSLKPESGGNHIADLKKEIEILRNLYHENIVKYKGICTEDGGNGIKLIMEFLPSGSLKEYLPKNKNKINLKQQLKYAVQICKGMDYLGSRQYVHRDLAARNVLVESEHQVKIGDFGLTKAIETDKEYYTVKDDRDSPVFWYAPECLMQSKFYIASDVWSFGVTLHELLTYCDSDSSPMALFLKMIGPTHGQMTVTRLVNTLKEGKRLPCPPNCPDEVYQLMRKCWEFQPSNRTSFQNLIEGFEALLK
T1 sequence (O60674 828-1132): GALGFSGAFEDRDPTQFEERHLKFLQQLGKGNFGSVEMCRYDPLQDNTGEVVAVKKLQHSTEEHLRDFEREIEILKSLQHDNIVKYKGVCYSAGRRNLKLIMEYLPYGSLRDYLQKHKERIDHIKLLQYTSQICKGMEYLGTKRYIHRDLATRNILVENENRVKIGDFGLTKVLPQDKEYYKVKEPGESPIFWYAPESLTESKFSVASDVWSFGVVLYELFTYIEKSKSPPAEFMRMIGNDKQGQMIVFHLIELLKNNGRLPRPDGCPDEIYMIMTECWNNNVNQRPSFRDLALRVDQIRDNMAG

With `CN(CCO)Cc1cc(NC2CCN([C@H]3C[C@](CC#N)(n4cc(-c5ncnc6[nH]ccc56)cn4)C3)CC2)nc(C(F)(F)F)c1` [Example 42, {trans-3-(4-{[4-{[(2-hydroxyethyl)(methyl)amino]methyl}-6-(trifluoromethyl)pyridin-2-yl]amino}piperidin-1-yl)-1-[4-(7H-pyrrolo[2,3-d]pyrimidin-4-yl)-1H-pyrazol-1-yl]cyclobutyl}acetonitrile], the IC50 in assay [1] is 20 to 150 nM; in assay [2], less than 20 nM. Further, the JAK2/JAK1 in assay [3] is more than 10.

As for `CN(Cc1cc(NC2CCN([C@H]3C[C@](CC#N)(n4cc(-c5ncnc6[nH]ccc56)cn4)C3)CC2)nc(C(F)(F)F)c1)C1CC1` [Example 37, {trans-3-(4-{[4-{[cyclopropyl(methyl)amino]methyl}-6-(trifluoromethyl)pyridin-2-yl]amino}piperidin-1-yl)-1-[4-(7H-pyrrolo[2,3-d]pyrimidin-4-yl)-1H-pyrazol-1-yl]cyclobutyl}acetonitrile], the IC50 in assay [1] was 150 to 500 nM; in assay [2], less than 20 nM. Further, in assay [3], the JAK2/JAK1 was more than 10.

With `CN(CCO)Cc1cc(OC2CCN([C@H]3C[C@](CC#N)(n4cc(-c5ncnc6[nH]ccc56)cn4)C3)CC2)nc(C(F)(F)F)c1` [Example 17, {trans-3-(4-{[4-{[(2-hydroxyethyl)(methyl)amino]methyl}-6-(trifluoromethyl)pyridin-2-yl]oxy}piperidin-1-yl)-1-[4-(7H-pyrrolo[2,3-d]pyrimidin-4-yl)-1H-pyrazol-1-yl]cyclobutyl}acetonitrile], the IC50 in assay [1] is 20 to 150 nM; in assay [2] it was less than 20 nM. In addition, the JAK2/JAK1 in assay [3] is listed as more than 10.

For `N#CC[C@]1(n2cc(-c3ncnc4[nH]ccc34)cn2)C[C@H](N2CCC(Oc3cc(CN[C@@H]4CCOC4)cc(C(F)(F)F)n3)CC2)C1` [Example 8, [trans-1-[4-(7H-pyrrolo[2,3-d]pyrimidin-4-yl)-1H-pyrazol-1-yl]-3-(4-{[4-{[(3R)-tetrahydrofuran-3-ylamino]methyl}-6-(trifluoromethyl)pyridin-2-yl]oxy}piperidin-1-yl)cyclobutyl]acetonitrile], the figures for the IC50 in assay [1] and in assay [2] were 20 to 150 nM and less than 20 nM, respectively. Further, in assay [3], the JAK2/JAK1 is reported as more than 10.

As to `COCc1cc(NC2CCN([C@H]3C[C@](CC#N)(n4cc(-c5ncnc6[nH]ccc56)cn4)C3)CC2)nc(C(F)(F)F)c1` [Example 45, {trans-3-(4-{[4-(methoxymethyl)-6-(trifluoromethyl)pyridin-2-yl]amino}piperidin-1-yl)-1-[4-(7H-pyrrolo[2,3-d]pyrimidin-4-yl)-1H-pyrazol-1-yl]cyclobutyl}acetonitrile], the IC50 in assay [1] is 20 to 150 nM; in assay [2], less than 20 nM. In assay [3], the JAK2/JAK1 is more than 10.

With `C[C@H](O)CNCc1cc(OC2CCN([C@H]3C[C@](CC#N)(n4cc(-c5ncnc6[nH]ccc56)cn4)C3)CC2)nc(C(F)(F)F)c1` [Example 15, {trans-3-(4-{[4-({[(2S)-2-hydroxypropyl]amino}methyl)-6-(trifluoromethyl)pyridin-2-yl]oxy}piperidin-1-yl)-1-[4-(7H-pyrrolo[2,3-d]pyrimidin-4-yl)-1H-pyrazol-1-yl]cyclobutyl}acetonitrile], the values for the IC50 in assay [1] and in assay [2] were 20 to 150 nM and less than 20 nM, respectively. Also, in assay [3], the JAK2/JAK1 is recorded as more than 10.

Consider `CC1(NCc2cc(OC3CCN([C@H]4C[C@](CC#N)(n5cc(-c6ncnc7[nH]ccc67)cn5)C4)CC3)nc(C(F)(F)F)c2)COC1` [Example 9, {trans-3-(4-{[4-{[(3-methyloxetan-3-yl)amino]methyl}-6-(trifluoromethyl)pyridin-2-yl]oxy}piperidin-1-yl)-1-[4-(7H-pyrrolo[2,3-d]pyrimidin-4-yl)-1H-pyrazol-1-yl]cyclobutyl}acetonitrile], for which the values for the IC50 in assay [1] and in assay [2] were 20 to 150 nM and less than 20 nM, respectively. For the same compound, in assay [3], the JAK2/JAK1 is listed as more than 10.

`N#CC[C@]1(n2cc(-c3ncnc4[nH]ccc34)cn2)C[C@H](N2CCC(Oc3cc(CN4CC5(COC5)C4)cc(C(F)(F)F)n3)CC2)C1` [Example 6, {trans-3-(4-{[4-(2-oxa-6-azaspiro[3.3]hept-6-ylmethyl)-6-(trifluoromethyl)pyridin-2-yl]oxy}piperidin-1-yl)-1-[4-(7H-pyrrolo[2,3-d]pyrimidin-4-yl)-1H-pyrazol-1-yl]cyclobutyl}acetonitrile]: the values for the IC50 in assay [1] and in assay [2] were 20 to 150 nM and less than 20 nM, respectively. Besides, the JAK2/JAK1 in assay [3] is more than 10.

As for `N#CC[C@]1(n2cc(-c3ncnc4[nH]ccc34)cn2)C[C@H](N2CCC(Nc3cc(CO)cc(C(F)(F)F)n3)CC2)C1` [Example 31, {trans-3-(4-{[4-(hydroxymethyl)-6-(trifluoromethyl)pyridin-2-yl]amino}piperidin-1-yl)-1-[4-(7H-pyrrolo[2,3-d]pyrimidin-4-yl)-1H-pyrazol-1-yl]cyclobutyl}acetonitrile], the IC50 in assay [1] is 20 to 150 nM; in assay [2], less than 20 nM. Besides, in assay [3], the JAK2/JAK1 was more than 10.

With `N#CC[C@]1(n2cc(-c3ncnc4[nH]ccc34)cn2)C[C@H](N2CCC(Nc3cc(CN[C@H]4C[C@H](O)C4)nc(C(F)(F)F)n3)CC2)C1` [Example 30, {trans-3-(4-{[6-{[(trans-3-hydroxycyclobutyl)amino]methyl}-2-(trifluoromethyl)pyrimidin-4-yl]amino}piperidin-1-yl)-1-[4-(7H-pyrrolo[2,3-d]pyrimidin-4-yl)-1H-pyrazol-1-yl]cyclobutyl}acetonitrile], the figures for the IC50 in assay [1] and in assay [2] were 20 to 150 nM and less than 20 nM, respectively. Also, the JAK2/JAK1 in assay [3] is on record as more than 10.

`N#CC[C@]1(n2cc(-c3ncnc4[nH]ccc34)cn2)C[C@H](N2CCC(Nc3cc(CN4CCC(F)(F)C4)cc(C(F)(F)F)n3)CC2)C1` [Example 36, {trans-3-(4-{[4-[(3,3-difluoropyrrolidin-1-yl)methyl]-6-(trifluoromethyl)pyridin-2-yl]amino}piperidin-1-yl)-1-[4-(7H-pyrrolo[2,3-d]pyrimidin-4-yl)-1H-pyrazol-1-yl]cyclobutyl}acetonitrile]: the IC50 is 150 to 500 nM in assay [1] and less than 20 nM in assay [2]. Moreover, in assay [3], the JAK2/JAK1 was more than 10.

With `CN(c1cc(CO)cc(C(F)(F)F)n1)C1CCN([C@H]2C[C@](CC#N)(n3cc(-c4ncnc5[nH]ccc45)cn3)C2)CC1` [Example 47, {trans-3-{4-[[4-(hydroxymethyl)-6-(trifluoromethyl)pyridin-2-yl](methyl)amino]piperidin-1-yl}-1-[4-(7H-pyrrolo[2,3-d]pyrimidin-4-yl)-1H-pyrazol-1-yl]cyclobutyl}acetonitrile], the figures for the IC50 in assay [1] and in assay [2] were 150 to 500 nM and less than 20 nM, respectively. The JAK2/JAK1 in assay [3] was more than 10.

Consider `CC1(C)CN(Cc2cc(NC3CCN([C@H]4C[C@](CC#N)(n5cc(-c6ncnc7[nH]ccc67)cn5)C4)CC3)nc(C(F)(F)F)c2)C1` [Example 35, {trans-3-(4-{[4-[(3,3-dimethylazetidin-1-yl)methyl]-6-(trifluoromethyl)pyridin-2-yl]amino}piperidin-1-yl)-1-[4-(7H-pyrrolo[2,3-d]pyrimidin-4-yl)-1H-pyrazol-1-yl]cyclobutyl}acetonitrile], for which the IC50 in assay [1] is 20 to 150 nM; in assay [2], less than 20 nM. The JAK2/JAK1 in assay [3] is listed as more than 10.

For `N#CC[C@]1(n2cc(-c3ncnc4[nH]ccc34)cn2)C[C@H](N2CCC(Oc3cc(CN4CC(C#N)C4)cc(C(F)(F)F)n3)CC2)C1` [Example 4, 1-{[2-[(1-{trans-3-(cyanomethyl)-3-[4-(7H-pyrrolo[2,3-d]pyrimidin-4-yl)-1H-pyrazol-1-yl]cyclobutyl}piperidin-4-yl)oxy]-6-(trifluoromethyl)pyridin-4-yl]methyl}azetidine-3-carbonitrile], the values for the IC50 in assay [1] and in assay [2] were 20 to 150 nM and less than 20 nM, respectively. The JAK2/JAK1 in assay [3] was more than 10.

For the compound `N#CC[C@]1(n2cc(-c3ncnc4[nH]ccc34)cn2)C[C@H](N2CCC(Oc3cc(Cn4ccnc4)cc(C(F)(F)F)n3)CC2)C1` [Example 22, {trans-3-(4-{[4-(1H-imidazol-1-ylmethyl)-6-(trifluoromethyl)pyridin-2-yl]oxy}piperidin-1-yl)-1-[4-(7H-pyrrolo[2,3-d]pyrimidin-4-yl)-1H-pyrazol-1-yl]cyclobutyl}acetonitrile], the IC50 in assay [1] is 20 to 150 nM; in assay [2] it was less than 20 nM. Further, the JAK2/JAK1 in assay [3] is more than 10.

Regarding `N#CC[C@]1(n2cc(-c3ncnc4[nH]ccc34)cn2)C[C@H](N2CCC(Oc3cc(CN[C@H]4CCOC4)cc(C(F)(F)F)n3)CC2)C1` [Example 7, [trans-1-[4-(7H-pyrrolo[2,3-d]pyrimidin-4-yl)-1H-pyrazol-1-yl]-3-(4-{[4-{[(3S)-tetrahydrofuran-3-ylamino]methyl}-6-(trifluoromethyl)pyridin-2-yl]oxy}piperidin-1-yl)cyclobutyl]acetonitrile], the IC50 is 20 to 150 nM in assay [1] and less than 20 nM in assay [2]. For the same compound, in assay [3], the JAK2/JAK1 is more than 10.
